What was measured:
Assay type in all cases: cell-based, human
[1] = tested on: XPA-deficient HAP1 cells (ΔXPA); assay: High-throughput drug screen for agents that alleviate UV sensitivity of NER-deficient cells; settings: drug at five times maximal plasma concentration for 24 hours, then UV; viability after 3 days
From the text: An in-house drug library of around 300 compounds representing all structurally distinct Food and Drug Administration (FDA) approved compounds was used to allow for potential drug repurposing. First, an NER-deficient cell line was generated by making a frameshift mutation in XPA, one of the central components of NER that functions in both TC-NER and GG-NER, utilizing CRISPR-Cas9 in the human near haploid cell line HAP1 (denoted ΔXPA) (FIG. 5A). […] Next, ΔXPA and wildtype cells were exposed to the drug library (with each drug used at five times maximal plasma concentration) for 24 hours, followed by UV exposure (at a dose selected to kill ΔXPA cells but not wildtype cells) (FIGS. 1A and 5D). The compounds were scored based on their efficiency to improve cellular survival of ΔXPA cells, compared to wildtype cells (FIG. 1B). […]
Fifty nL of compound per well was transferred into 384-well plates (Corning 3712) from DMSO stock plates using acoustic transfer (Labcyte Echo 520). […] Three days later cell viability was determined using Cell Titer-Glo (Promega). […] For data analysis, the percentage of control was calculated and the signal of the DMSO irradiated sample was used to set values to 0% while the DMSO non-irradiated sample was used to set the values to 100%. […]

ΔXPA cells = assay: Short-term survival after UV irradiation (CellTiter-Glo); settings: 0.5 mM acetohexamide for 6 hours, then UV; survival after 3 days (FIG. 1D)
From the text: A. Schematic representation of the experimental setup used to perform the high-throughput drug screen, where drugs were used at five-times maximal plasma concentration (CLOUD; CeMM library of unique drugs). B. Bubble plot displaying the drugs used plotted against cell viability. Light grey bubbles indicate wildtype (WT) cells, dark grey bubbles indicate XPA-deficient cells (ΔXPA). […] C. Chemical structure of acetohexamide. D. Dose-response curve of WT and ΔXPA cells treated with or without 0.5 mM acetohexamide for 6 hours, followed by UV irradiation. Survival was assessed after 3 days, using CellTiter-Glo. […] Error bars indicate SEM (n=3). E. Colony formation using the same conditions indicated in (D), where cells were kept in culture for 10 days following UV irradiation, following which they were fixed and stained.
A-C. Cell viability of ΔXPA cells treated with different concentrations of acetohexamide (aceto), gliclazide (GLC) and glimepiride (GLM) for 6 hours, followed by 10 J/M^2 of UV irradiation. D. Survival of WT and ΔXPA cells treated with or without 50 μM glibenclamide for 6 hours, followed by UV exposure. Survival was assessed after 3 days using CellTitre-Glo. E. Cell viability of ΔXPA cells treated with 10 μM of different derivatives of acetohexamide for 6 hours, followed by UV irradiation with 5 J/M^2.
For UV irradiation, cells were washed with PBS, trypsinized, counted and distributed in equal number then irradiated with different doses of UV as indicated. Finally, 1,000 cells were re-distributed into 96 well plates. After 72 hours, survival was measured using Cell Titer-Glo (Promega). Cells were irradiated with UVC using the UVP CX-2000 device (254 nm, Fisher Scientific).

[2] = tested on: XPA^Δ/Δ patient-derived cells; assay: Colony formation of XPA patient-derived fibroblasts after UV irradiation; settings: 0.5 mM acetohexamide for 6 hours, then UV; 10 days (FIG. 2B)
Method: A. Dose-response curve of WT and ΔXPA cells treated with or without 0.5 mM acetohexamide for 6 hours, followed by illudin S treatment. Survival was assessed after 3 days using CellTiter-Glo. B. Colony formation of WT fibroblasts (BJ) and XPA-patient derived fibroblasts (XPA^Δ/Δ) treated with or without 0.5 mM acetohexamide for 6 hours, followed by UV irradiation (as indicated) and then kept in culture for 10 days. C. WT BJ and XPA^Δ/Δ fibroblastoid cells were treated with 0.5 mM acetohexamide for 6 hours, irradiated with 15 J/M^2 and then fixed and immunostained with an anti-cyclobutane pyrimidine dimer (CPD) antibody at the indicated times. Nuclear DNA was counterstained with DAPI. Scale bar, 10 μm. D. Scatter plot displaying the quantification of CPD intensities per nucleus of WT and XPA^Δ/Δ cells in the presence or absence of 0.5 mM acetohexamide, of more than 100 cells. Red lines within each column represent median intensities. A.u.=arbitrary unit.
HAP1 cells were cultured in Iscove's Modified Dulbecco's Medium (Gibco). […]
Cells were treated with UV at different doses with or without drug pre-treatment and then seeded into 6-well plates, at a density of 1,000 cells/well, in duplicates for 2 weeks until visible colonies were formed. […] Next, the staining solution was removed and the wells were washed, imaged and quantified using CellProfiler.

WT and ΔXPA cells = assay: Cell cycle analysis (propidium iodide, FACS); settings: 0.5 mM for 6 hours, WT vs ΔXPA (FIG. 8A)
Method: A. WT and ΔXPA cells were either treated with DMSO or 0.5 mM acetohexamide for 6 hours. Cell cycle profiles were determined using propidium iodide (P1) staining followed by FACS analysis. B-D. Survival of WT HAP1 cells treated with either DMSO or 0.5 mM acetohexamide for 6 hours, followed by exposure to the indicated DNA damaging agents (MMC: mitomycin C; HU: hydroxyl urea; MMS: methyl methanesulfonate). Survival was assessed after 3 days using CellTitre-Glo. E. Cell viability of WT cells treated either with 0.5 mM acetohexamide or 30 μM N-acetylcysteine (NAC) for 6 hours, followed by 30 J/M^2 UV exposure.
Cells were treated with either DMSO or acetohexamide as indicated. Cell cycle stages were identified using propidium iodide (PI) staining. Briefly, cells were harvested, resuspended in PBS and fixed overnight with cold 70% ethanol. After centrifugation, ethanol was removed and cells were resuspended in PBS containing 1 μg/mL RNase A and […]. Finally, cells were analyzed on a FACScalibur flow cytometer. Following cell acquisition, analysis was performed using FlowJo software (Tree Star).

Compound: CC(=O)c1ccc(S(=O)(=O)NC(=O)NC2CCCCC2)cc1 [acetohexamide]
- correction of survival of ΔXPA cells compared to wildtype cells [1]: > 40%
- UV sensitivity of ΔXPA cells, short-term dose response assay (ΔXPA cells): alleviated the UV sensitivity of ΔXPA cells almost to the level of wildtype cells
- UV-induced cell death of XPA^Δ/Δ patient-derived cells [2]: could alleviate UV-induced cell death of XPA^Δ/Δ patient-derived cells
- cell cycle profiles (WT and ΔXPA cells): no difference between wildtype or ΔXPA cells upon acetohexamide treatment
